Laboratory results taken from patent publication US11117898B2, “Pyrazolo-heteroaryl derivative, preparation method and medical use thereof” (Jiangsu Hengrui Medicine Co., Ltd., priority 2016, dated 2021).

Assays:
human TLR8 = human TLR8 (Homo sapiens (Human), UniProt Q9NR97); assay: Agonistic activity on human TLR8 in HEK-Blue hTLR8 stably transfected cells; type: cell-based; settings: for EC50: OD 620 nm
Description: The activation effect of the compounds of the present invention on the hTLR8 protein expressed by the HEK-Blue™ hTLR8 stably transfected cells was determined by the following experimental method:
(§1) A bag of HEK-Blue detection dry powder was dissolved in 50 ml of water free of endotoxin, and the solution was then placed in an incubator at 37° C. for 10 minutes followed by sterile filtration to prepare a HEK-Blue detection medium. The compound was firstly formulated into a 20 mM stock solution, then diluted with pure DMSO to a maximum concentration of 6×10^6 nM, and a total of 10 points were obtained by a 3-fold gradient dilution. The compound was firstly diluted 20-fold with the medium, then 20 μl of the diluted compound were added to each well.
(§2) The supernate was removed from the HEK-Blue™ hTLR8 cells, to which 2-5 ml of pre-warmed PBS were then added. The cells were placed in an incubator for 1-2 minutes, gently pipetted, and counted by trypan blue staining. The cells were re-suspended in the HEK-Blue detection medium to adjust the concentration to 2.2×10^5 cells/ml. 180 μl of cells were added to the above 96-well plate already added with 20 μl of the compounds, and incubated at 37° C. for 6-16 hours.
The activation effect of the compounds of the present invention on human TLR8 can be determined by the above test, and the obtained EC50 values are shown in Table 2.

human TLR7 = human TLR7 (Homo sapiens (Human), UniProt Q9NYK1); assay: Agonistic activity on human TLR7 in HEK-Blue hTLR7 stably transfected cells; type: cell-based; settings: for EC50: OD 620 nm
Chain of human TLR7 (Q9NYK1 27-1049): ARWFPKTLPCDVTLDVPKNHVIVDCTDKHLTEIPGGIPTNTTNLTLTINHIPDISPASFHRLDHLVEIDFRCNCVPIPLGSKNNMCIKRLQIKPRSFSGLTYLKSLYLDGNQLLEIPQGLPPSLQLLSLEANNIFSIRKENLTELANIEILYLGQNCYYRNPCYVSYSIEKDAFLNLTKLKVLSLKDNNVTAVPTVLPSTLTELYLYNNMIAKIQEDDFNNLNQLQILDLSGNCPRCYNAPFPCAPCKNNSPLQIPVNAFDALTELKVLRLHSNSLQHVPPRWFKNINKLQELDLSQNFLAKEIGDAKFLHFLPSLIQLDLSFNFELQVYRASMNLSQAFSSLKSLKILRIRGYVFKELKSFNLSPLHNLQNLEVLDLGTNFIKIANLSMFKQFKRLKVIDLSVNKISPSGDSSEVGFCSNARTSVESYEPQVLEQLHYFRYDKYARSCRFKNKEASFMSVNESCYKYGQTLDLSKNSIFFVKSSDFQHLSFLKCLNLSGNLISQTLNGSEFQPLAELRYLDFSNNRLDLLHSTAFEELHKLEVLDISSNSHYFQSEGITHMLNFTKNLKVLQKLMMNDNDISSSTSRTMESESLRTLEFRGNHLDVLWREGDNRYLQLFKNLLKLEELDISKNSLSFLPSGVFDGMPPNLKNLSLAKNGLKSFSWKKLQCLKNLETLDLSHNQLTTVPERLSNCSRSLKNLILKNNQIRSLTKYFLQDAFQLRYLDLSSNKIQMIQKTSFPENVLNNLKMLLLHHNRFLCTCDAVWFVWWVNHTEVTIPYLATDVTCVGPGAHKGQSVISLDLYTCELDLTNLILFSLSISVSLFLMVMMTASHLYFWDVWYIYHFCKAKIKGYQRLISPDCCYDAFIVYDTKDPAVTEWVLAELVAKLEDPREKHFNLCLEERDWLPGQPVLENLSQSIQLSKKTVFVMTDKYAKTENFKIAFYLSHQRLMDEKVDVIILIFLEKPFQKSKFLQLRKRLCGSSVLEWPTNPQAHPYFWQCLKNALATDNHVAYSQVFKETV
Description: The activation effect of the compounds of the present invention on the hTLR7 protein expressed by the HEK-Blue™ hTLR7 stably transfected cells was determined by the following experimental method:
as §1, with “dilution.” for “dilution. The compound was firstly diluted 20-fold with the medium, then 20 μl of the diluted compound were added to each well.”
as §2, with “The above formulated compound was firstly diluted 20-fold with the medium, then 20 μl of the diluted compound were added to each well. The supernate” for “The supernate”, “the HEK-Blue™ hTLR7 cells, to” for “the HEK-Blue™ hTLR8 cells, to”
The activation effect of the compounds of the present invention on human TLR7 can be determined by the above test, and the obtained EC50 values are shown in Table 1.

Chain of human TLR8 (Q9NR97 27-1041): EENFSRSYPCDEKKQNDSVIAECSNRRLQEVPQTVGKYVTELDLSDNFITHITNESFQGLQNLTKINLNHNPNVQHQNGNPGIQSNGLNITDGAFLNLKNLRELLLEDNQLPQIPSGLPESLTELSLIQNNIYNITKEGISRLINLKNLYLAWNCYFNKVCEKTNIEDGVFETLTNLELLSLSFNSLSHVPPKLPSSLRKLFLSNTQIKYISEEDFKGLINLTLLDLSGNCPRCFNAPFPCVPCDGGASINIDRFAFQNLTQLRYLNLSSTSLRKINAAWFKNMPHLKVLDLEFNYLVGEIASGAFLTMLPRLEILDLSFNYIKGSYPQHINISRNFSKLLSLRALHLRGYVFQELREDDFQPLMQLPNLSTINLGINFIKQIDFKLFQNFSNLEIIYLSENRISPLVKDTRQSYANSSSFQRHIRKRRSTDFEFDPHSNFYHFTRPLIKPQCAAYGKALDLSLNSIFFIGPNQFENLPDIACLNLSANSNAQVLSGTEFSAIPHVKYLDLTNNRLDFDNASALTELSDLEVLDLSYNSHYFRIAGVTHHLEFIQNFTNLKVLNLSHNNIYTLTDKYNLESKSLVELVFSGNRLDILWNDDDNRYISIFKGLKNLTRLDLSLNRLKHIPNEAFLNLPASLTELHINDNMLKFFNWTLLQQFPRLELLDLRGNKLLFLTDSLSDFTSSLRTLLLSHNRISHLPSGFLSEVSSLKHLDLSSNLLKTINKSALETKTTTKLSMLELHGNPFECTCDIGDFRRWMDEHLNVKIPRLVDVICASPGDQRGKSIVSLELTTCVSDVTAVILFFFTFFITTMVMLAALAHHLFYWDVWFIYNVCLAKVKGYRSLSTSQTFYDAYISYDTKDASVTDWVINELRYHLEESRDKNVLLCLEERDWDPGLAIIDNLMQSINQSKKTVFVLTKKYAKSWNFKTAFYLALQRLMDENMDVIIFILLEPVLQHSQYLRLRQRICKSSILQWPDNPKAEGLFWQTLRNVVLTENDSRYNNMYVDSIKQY

Row | SMILES | Emax (human TLR8) | EC50 (human TLR8) | Emax (human TLR7) | EC50 (human TLR7)
1 | CCCCOc1nc(N)c2cnn(Cc3ccc(CN4CCCCC4)cc3)c2n1 [Example 3, 6-Butoxy-1-(4-(piperidin-1-ylmethyl)benzyl)-1H-pyrazolo[3,4-d]pyrimidin-4-amine] | 2% | > 24 µM | 91% | 0.077 µM
2 | CCCCOc1nc(N)c2cnn(Cc3ccc(CN4CCC4)cc3)c2n1 [Example 2, 1-(4-(Azetidin-1-ylmethyl)benzyl)-6-butoxy-1H-pyrazolo[3,4-d]pyrimidin-4-amine] | 52% | > 29 µM | 91% | 0.064 µM
3 | CCCCOc1nc(N)c2cnn(Cc3cccc(CN4CCCC4)c3)c2n1 [Example 4, 6-Butoxy-1-(3-(pyrrolidin-1-ylmethyl)benzyl)-1H-pyrazolo[3,4-d]pyrimidin-4-amine] | 28% | > 30 µM | 88% | 0.166 µM
4 | COCCOc1nc(N)c2cnn(Cc3ccc(CN4CCCC4)cc3)c2n1 [Example 7, 6-(2-Methoxyethoxy)-1-(4-(pyrrolidin-1-ylmethyl)benzyl)-1H-pyrazolo[3,4-d]pyrimidin-4-amine] | 0% | > 30 µM | 95% | 0.18 µM
